From the supplement of paper PMC10307832

What was measured:
Assay in all cases: relative viability (nuclei count vs DMSO), 5 days (fraction); higher = more cells survive
[1] = compound: COC1=C(C=C(C=C1)C2=CC3=NC=CN3C(=N2)NC4=C(C=CC=N4)C(=O)N)OC [BAY61-3606] + O=C(CCCCCCC(=O)Nc1ccccc1)NO [Vorinostat] (partner 1 µM)
Outline: (§1)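 Values are medians from duplicate plates. Each reflects relative viability, defined as the nuclei count of treated wells over that of vehicle wells. Lung cancer cell lines in 1536-well plates were pin-tool dosed one day after seeding with one drug alone or with a fixed anchor-drug dose plus five library-drug doses (not always all listed) in √10 steps, then fixed, stained and imaged at 4× after 5 days.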

[2] = compound: COC1=C(C=C(C=C1)C2=CC3=NC=CN3C(=N2)NC4=C(C=CC=N4)C(=O)N)OC [BAY61-3606] + Nc1ncn([C@H]2C[C@H](O)[C@@H](CO)O2)c(=O)n1 [Decitabine] (partner 2 µM)
Outline: as §1

[3] = compound: COc1cccc2c1C(=O)c1c(O)c3c(c(O)c1C2=O)C[C@@](O)(C(=O)CO)C[C@@H]3O[C@H]1C[C@H](N)[C@H](O)[C@H](C)O1 [Doxorubicin]
Outline: (§2)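 Acceptance criteria were a control CV below 25% and at least one doubling per plate. Lung cancer cell lines in 1536-well plates got five library-drug doses (not always all listed) √10 apart by pinning and were left 5 days with no medium change. Viability divides treated-well nuclei by vehicle-well nuclei and is the median across plates. Nuclei were counted by MetaXpress from 4× Hoechst images.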

[4] = compound: COC1=C(C=C(C=C1)C2=CC3=NC=CN3C(=N2)NC4=C(C=CC=N4)C(=O)N)OC [BAY61-3606]
Outline: as §2

Cell Line: UMC-11
- relative viability ([1]; first compound 0.02 µM): 0.43
- relative viability ([1]; first compound 0.06325 µM): 0.385
- relative viability ([1]; first compound 0.2 µM): 0.436
- relative viability ([1]; first compound 0.6325 µM): 0.465
- relative viability ([1]; first compound 2 µM): 0.326
- relative viability ([2]; first compound 0.02 µM): 0.65
- relative viability ([2]; first compound 0.06325 µM): 0.476
- relative viability ([2]; first compound 0.2 µM): 0.601
- relative viability ([2]; first compound 0.6325 µM): 0.597
- relative viability ([2]; first compound 2 µM): 0.548
- relative viability ([3]; 0.001 µM): 0.974
- relative viability ([3]; 0.003162 µM): 1.06
- relative viability ([3]; 0.01 µM): 0.913
- relative viability ([3]; 0.03162 µM): 0.692
- relative viability ([3]; 0.1 µM): 0.715
- relative viability ([4]; 0.02 µM): 1.1
- relative viability ([4]; 0.06325 µM): 1.05
- relative viability ([4]; 0.2 µM): 0.955
- relative viability ([4]; 0.6325 µM): 1.06
- relative viability ([4]; 2 µM): 0.991
